Data as given in patent US12269859B2, “Synthetic immune receptors and methods of use thereof” (Angeles Therapeutics, Inc., priority 2016, dated 2025).

Columns and labels:
RAJI cells [1] = experiment: RAJI xenograft model of lymphoma in NSG mice (survival); assay type: in vivo
Description: In vivo efficacy of SIR targeting CD19. […] SIR constructs and Gluc-PAC-G07 control construct encoding non-secretory form of Guassia Luciferase. Approximately half the cells were selected with puromycin while the other half was expanded without puromycin selection. NSG mice (Jackson Lab) were sub-lethally irradiated at a dose of 175 cGy. Approximately 24 hours post irradiation (day 2), mice were injected with 2.5×10^4 RAJI cells via tail-vein. […] Control mice (n=5) received no T cells or uninfected T cells. Mice were given human IL2 (400 IU intraperitoneally) on alternate days till the death of all mice in control group.
Approximately half the cells were selected with puromycin while the other half was expanded without puromycin selection. NSG mice (Jackson Lab) were sub-lethally irradiated at a dose of 175 cGy. Approximately 24 hours post irradiation (day 2), mice were injected with 2.5×10^4 RAJI cells via tail-vein. […] Control mice (n=5) received no T cells or uninfected T cells. Mice were given human IL2 (400 IU intraperitoneally) on alternate days till the death of all mice in control group.
SIR construct. NSG mice (Jackson Lab) were sub-lethally irradiated at a dose of 175 cGy. Approximately 24 hours post irradiation (day 2), mice were injected with 2.5×10^4 RAJI cells via tail-vein. […] SIR encoding lentivirus. Control mice (n=5) were injected with 5 million uninfected T cells or given no T cells.
SIR constructs. […] SIR were included as controls. NSG mice (n=5) were sub-lethally irradiated at a dose of 175 cGy. 24 hours post irradiation (day 2), mice were injected with 2.5×10^4 RAJI cells via tail-vein. […] Mice were given human IL2 (400 IU i.p.) on alternate days till the death of all mice in control group.
Human peripheral blood T cells isolated using CD3 magnetic beads were infected with lentiviruses expressing the indicated SIR constructs targeting Lym1 and Lym2. On day 1, the NSG mice were sub-lethally irradiated at a dose of 175 cGy. 24 hours post irradiation (day 2), mice were injected with 25×10^3 Raji cells intravenously. On day 3, the mice were treated intravenously with 10 million indicated CAR-T cells. Beginning on day 4, mice were injected with human IL-2 i.p. at a dose of 400 IU/mice every alternate day after the injection CAR-T cells till the death of all mice in control group.

RAJI cells [2] = experiment: Jurkat NFAT-GFP assay, coculture with RAJI cells; assay type: cell-based, human; settings: SIR/CAR-expressing Jurkat-NFAT-GFP cells cocultured with RAJI cells
Description: (B) Induction of NFAT promoter driven GFP expression. The control vector- and SIR-expressing Jurkat-NFAT-GFP cocultured for 4-24 hours with the target antigen-expressing cell line (described above) and their ability to bind to the target antigen is assayed by measuring induction of GFP expression using Flow Cytometry. Cellular supernatant is collected and assayed for the induction of cytokines (e.g., IL2).
Jurkat NFAT-GFP Assay For Synthetic Immune Receptors. The Jurkat-NFAT-GFP cells are engineered in such a way that the IL-2 promoter, which carries NFAT binding sites, is cloned upstream of the GFP gene. These cells have been used to study signaling via TCR and CAR. […]
Induction of GFP expression by coculturing of Jurkat-NFAT-GFP cells expressing different SIR constructs and the different target cells was studied essentially as described previously (Wu, Roybal, Puchner, Onuffer, & Lim, 2015). GFP expression was monitored by FACS analysis. […] The names of different SIRs, their SEQ ID NOs, component antigen binding domains and TCR chains can be determined by reference to Tables 7A-7H. […] The signs +/−, +, 2+ etc. after the name of the cell lines indicate the relative degree of positivity on the Jurkat-NFAT-GFP assay as measured by the % GFP positive cells after culture of the SIR expressing Jurkat-NFAT-GFP cells with that cell line.

293-Protein L-II cells = experiment: Jurkat NFAT-GFP assay, coculture with 293-Protein L-II cells; assay type: cell-based, human; settings: co-culture with 293-Protein L-II cells approximately 18 hours
Description: Generation of human aAPC expressing Protein L on cell surface. Lentiviral chimeric antigen receptor (CAR) constructs were generated expressing different regions of Protein L in fusion with hinge and transmembrane regions of human CD8, 41BB costimulatory domain and CD3z chain. The nucleotide sequence of Protein L was codon optimized for optimal expression in human cells. It needs to be noted that the 41BB costimulatory domain and CD3z chain are not essential for the function of Protein L for the purpose of this invention. The vectors also carried N-terminal signal peptides derived from either human CD8 or IgH to allow cell surface transport of Protein L. The complete nucleic acid and amino acid sequence of the vectors are provided in SEQ ID NO: 888 and SEQ ID NO: 889.
Next, 293 cells were infected with a lentivirus vector encoding the Protein L-II construct (072716-K01) and polyclonal population of cells stably expressing Protein L were generated following selection with 750 ng/ml puromycin. […] SIR constructs. […] The use of Protein-L expressing aAPC is, however, not limited to above type of cells. These cells can serve as universal aAPC for any immune effector cell which carries an antigen binding domain derived from a suitable κ chain containing antibody that can bind to Protein L.

Protein L magnetic beads = experiment: Jurkat NFAT-GFP assay, coculture with Protein L magnetic beads; assay type: cell-based, human; settings: coculture with Protein L beads for 18 hours
Description: Use of Protein L microbeads and Protein L expressing cells for stimulation of SIR and CAR expressing cells. A number of Human cell-based artificial antigen-presenting cells for cancer immunotherapy have been described. One approach for ex vivo expansion of CAR^+ and SIR^+ T cells involves the use of irradiated artificial antigen presenting cells (aAPC) expressing the targeted tumor associated antigen (TAA). However, this approach requires that the aAPC be engineered to express each individual TAA. To overcome this problem, a universal antigen presenting cell was developed. Protein L is an immunoglobulin (Ig) light chain-binding protein expressed by some strains of the anaerobic bacterial species Peptostreptococcus magnus. […] As an alternative to expressing individual TAAs on aAPC, experiments were performed to determine if Protein L could activate CAR^+ T and SIR^+ T cells independent of specificity. In the initial experiments, coculture of Jurkat-NFAT-GFP cells expressing different CAR and SIR constructs were tested to determine whether Protein L magnetic beads would lead to induction of GFP expression. Pierce Protein L magnetic beads (cat. #88849; concentration 10 mg/ml) were purchased from ThermoFisher and diluted 1:10 in PBS. Approximately 10 μl of diluted beads were added per well in a U-bottom 96-well plate. […] CAR were added to the wells and cocultured with the beads for 18 hours. […]

For `Cc1sc2c(c1C)C(c1ccc(Cl)cc1)=N[C@@H](CC(=O)OC(C)(C)C)c1nnc(C)n1-2` [JQ1(+), reference compound], which “persistence of SIR-T cells and survival vs vehicle (in words)” value (RAJI cells [1]; 50 mg/kg twice daily intra-peritoneal, mice receiving SEQ ID NO: 1200 SIR-T cells) is on record?
Its value is “longer persistence of SIR-T cells and survive longer”.

“pSBbi-puro-FMC63vL-V5-[TCRb-KACIAH]-F-P2A-FMC63vH-MYC-[TCRa-CSDVP]-F-F2A [SEQ ID NO:875]” was tested. Which “induction of GFP expression / NFAT signaling (in words)” value (RAJI cells [2]) did it give?
Its value is “showed GFP induction”.

What does the source list for “CD8SP-FMC63(vL-vH)-Myc-BBz-T2A-PAC [SEQ ID NO:4501, reference compound]”?
induction of GFP expression (in words) (293-Protein L-II cells): strong induction of GFP expression; induction of GFP expression (in words) (Protein L magnetic beads): modest induction of GFP expression

`COc1ccc(-c2cc3c(C)nc(N)nc3n([C@H]3CC[C@H](OCCO)CC3)c2=O)cn1` [PF-04691502, reference compound] was tested. Which “median survival of mice given SIR-T cells expanded in presence vs absence of the inhibitor (in words)” value (RAJI cells [1]; SIR-T (SEQ ID NO:900) expanded with 0.10 μM to 0.5 μM) did it give?
Its value is “higher”.
